We go through ten compounds from patent US10301279B2, “Piperidine carboxamide compound, preparation method, and use thereof” (Institute of Pharmacology and Toxicology Academy of …, priority 2013, dated 2019).

Test [1] addresses T1, Hsp70 (Homo sapiens, UniProt P0DMV8).
T1 construct: purchased Enzo Life Sciences ADI-ESP-550-D
In words: Measurement of affinity for Hsp70 (BIACORE T100, CM5 chip). Conditions: for effect in preliminary screening of binding to Hsp70, compared with positive compound VER-155008: at 10 μm; for Kd: steady state model, 25° C., PBS containing 5% DMSO. The class given is binding. On the procedure: 1. Instrument: BIACORE T100 biomolecular interaction analyzer (GE, USA)
2. Reagents: PBS Buffer (×10), P20, CM5 chip (GE, USA), Hsp70 (human, ADI-ESP-550-D), manufactured by Enzo Life Sciences.
30 mM mother liquor of compound was formulated with DMSO, which was diluted to 2 mM application solution with DMSO before use. 5 μl of the application solution was taken and diluted with 95 μl 1.05×PBS to 100 μM, and then diluted in turn with PBS containing 5% DMSO to 10, 3, 1, 0.3, 0.1, 0.03, 0.01, 0.003 μM, […]. PBS containing 5% DMSO was used as solvent control.
Hsp70 protein was diluted with 10 mmol/L sodium acetate buffer solution (pH 5.0) to 30 μg/ml, and coupled directly on a hydrophilic carboxylmethyl dextran matrix sensor chip M5 through normalized primary amine coupling reaction, RU=11209, and then the chip was balanced for 1-2 h with PBS Buffer at […].
At a flow rate of […], with PBS containing 5% DMSO as mobile phase, at 25° C., the compound was introduced in the sequence of 0.003, 0.01, 0.03, 0.1, 0.3, 1, 3 and 10 μM, with binding time 90 seconds, and dissociation time 120 seconds.
According to binding characteristics between the compounds and protein, the binding constant (equilibrium dissociation constant KD) between drugs and protein was calculated by selecting steady state model with the formula: Conc*Rmax/[conc+KD]+offset.
At a flow rate of […], PBS containing 5% DMSO as mobile phase, at 25° C., the compound was injected in the order of 0.003, 0.01, 0.03, 0.1, 0.3, 1, 3, and 10 μM, with the binding time of 90 sec, and the dissociation time of 120 sec.

Another test relates to MDA-MB-453. The test can be described thus: Cell survival (ATPlite/CellTiter-Glo luminescence), alone and combined with lapatinib. The class given is cell-based, human. Conditions: MDA-MB-453 cells; for Survival rate %: 72 hours. The protocol: (§1) Cells plating: a 100 mm culture dish with overgrown adherent cells was digested with 1 ml 0.25% trypsin (GIBCO) at 37° C. for 5 min, and the reaction was terminated with 2 ml culture medium (containing 10% FBS, GIBCO). The cells were scattered and collected, after counting, diluted to 1×10^5 cells/ml, and seeded into a 96-well plate at 50 μl/well, 5000 cells/well, excluding the peripheral circle of wells to which no cell was added, but PBS was added, 60 wells in total, and then incubated at 37° C. for 24 hours for adhering.
(§2) Test after incubation at 37° C. for 72 hours: […] of ATPlite kit substrate solution was added in each well, and vibrated for 3 min, followed by placing aside in darkness for 10 min, and then supernatant 100 μl/well was taken and placed on aluminescence test plate; the luminescence test plate that has been fully incubated was placed in a luminescence test instrument, to read luminescence value.
(§3) (1) Cell survival rate (%)=Experimental group RLU/control group RLU×100%. The experimental data were subjected to data analysis and processing by utilizing GraphPad software.
(§4) (2) The nature of interaction between two drugs was evaluated by using coefficient of drug interaction (CDI), CDI being calculated as follows: CDI=AB/(A×B)×100%. As calculated according to the number of viable cells (luminescence value), when CDI<1, the nature of interaction between two drugs is synergism; when CDI<0.7, the synergism is very significant; when CDI=1, the nature of interaction between two drugs is addition; when CDI>1, the nature of interaction between two drugs is antagonism.

For another test, the system named is BT474. The description is as above. As to conditions: BT474 cells; for Survival rate %: 72 hours. Format: cell-based, human. The protocol:
as §1, §2, §3, §4

A further test relates to SK-BR3. The test is described as above. The class given is cell-based, human. As to conditions: SK-BR3 cells; for Survival rate %: 72 hours. On the procedure: as §1, §2, §3, §4
A further test concerns MDA-MB-361. Described as above. Format: cell-based, human. Conditions: MDA-MB-361 cells, 72 hours. On the procedure: as §1, §2, §3, §4
The test system of the next test is SK/Lap^R1.0. Described as above. Format: cell-based, human. As to conditions: SK/Lap^R1.0 cells, 72 hours. On the procedure: as §1, §2, §3, §4
The subject of a further test is BT/Lap^R1.0. The test is described as above. Format: cell-based, human. As to conditions: BT/Lap^R1.0 cells; for Survival rate %: 72 hours. On the procedure: as §1, §2, §3, §4
Test [2] deals with T1, Hsp70. As to conditions: literature value (Cancer Chemother Pharmacol 2010, 66: 535-545); read-out: affinity for Hsp70, literature value; cited from earlier work.
The mark [3] stands for this setting: Example 30 10 μM alone (Lapatinib 0).
Setting [4] is: Example 30 10 μM combined with Lapatinib 1 μM.
Setting [5] is: Example 30 10 μM with Lapatinib 1 μM, CDI<1 synergism.
The mark [6] stands for this setting: Lapatinib 1 μM alone (Example 30 0 μM).

Read-outs that look alike come from different tables or passages of the source.

T1 sequence (P0DMV8 whole entry): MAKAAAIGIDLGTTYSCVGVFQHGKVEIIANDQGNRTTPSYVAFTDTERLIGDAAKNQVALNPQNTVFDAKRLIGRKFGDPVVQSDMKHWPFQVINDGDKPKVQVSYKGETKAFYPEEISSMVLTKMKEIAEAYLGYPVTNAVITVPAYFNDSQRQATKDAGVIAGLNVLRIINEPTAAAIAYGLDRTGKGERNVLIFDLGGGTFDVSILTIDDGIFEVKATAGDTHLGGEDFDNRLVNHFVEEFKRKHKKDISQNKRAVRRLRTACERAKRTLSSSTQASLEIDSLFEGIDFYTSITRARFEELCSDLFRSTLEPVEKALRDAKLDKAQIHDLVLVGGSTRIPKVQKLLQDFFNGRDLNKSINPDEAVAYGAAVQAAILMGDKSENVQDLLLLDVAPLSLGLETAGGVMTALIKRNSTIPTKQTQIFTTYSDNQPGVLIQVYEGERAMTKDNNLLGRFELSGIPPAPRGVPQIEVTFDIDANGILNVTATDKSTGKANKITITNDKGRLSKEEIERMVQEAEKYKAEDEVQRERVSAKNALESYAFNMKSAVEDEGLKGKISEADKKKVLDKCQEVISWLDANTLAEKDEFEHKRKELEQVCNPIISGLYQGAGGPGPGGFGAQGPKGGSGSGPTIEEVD

With `CN(C(=O)OC(C)(C)C)C1CCN(c2nccc(Cl)n2)CC1` [Example 1, t-butyl N-methyl-N-[1-(4-chloropyrimidin-2-yl)piperidin-4-yl]carbamate], at Hsp70 [1], the “effect in preliminary screening of binding to Hsp70, compared with positive compound VER-155008” value is on record as “equivalent to that of positive compound VER-155008” and the Kd turned out to be 2190 nM.
Take `CN(C(=O)OC(C)(C)C)C1CCN(c2ccnc(Cl)n2)CC1` [Example 2, t-butyl N-methyl-N-[1-(2-chloropyrimidin-4-yl)piperidin-4-yl]carbamate]: at Hsp70 [1], the “effect in preliminary screening of binding to Hsp70, compared with positive compound VER-155008” value was “equivalent to that of positive compound VER-155008” and the Kd turned out to be 247 nM.
`CN(C(=O)OC(C)(C)C)C1CCN(c2cc(Cl)ncn2)CC1` [Example 3, t-butyl N-methyl-N-[1-(6-chloropyrimidin-4-yl)piperidin-4-yl]carbamate]: at Hsp70 [1], the “effect in preliminary screening of binding to Hsp70, compared with positive compound VER-155008” value is “equivalent to that of positive compound VER-155008” and the Kd was found to be 525 nM.
As for `COc1nccc(N2CCC(N(C)C(=O)OC(C)(C)C)CC2)n1` [Example 5, t-butyl N-methyl-N-[1-(2-methoxypyrimidin-4-yl)piperidin-4-yl]carbamate], the “effect in preliminary screening of binding to Hsp70, compared with positive compound VER-155008” value at Hsp70 [1] was “equivalent to that of positive compound VER-155008”.
As to `CSc1nccc(N2CCC(N(C)C(=O)OC(C)(C)C)CC2)n1` [Example 6, t-butyl N-methyl-N-[1-(2-methylthiopyrimidin-4-yl)piperidin-4-yl]carbamate], at Hsp70 [1], the “effect in preliminary screening of binding to Hsp70, compared with positive compound VER-155008” value was “equivalent to that of positive compound VER-155008” and the Kd was 12700 nM.
On the same counts, the results for `CSc1nccc(N2CCC(N(C)C(=O)O[C@H]3CCN(S(=O)(=O)c4cccs4)C3)CC2)n1` [Example 13, (S)-[1-(2-thienylsulfonyl)pyrrolidin-3-yl] N-methyl-N-[1-(2-methylthiopyrimidin-4-yl)piperidin-4-yl]carbamate] are “equivalent to that of positive compound VER-155008” and 520 nM.
Take `CN(C(=O)Cn1ccnc1)C1CCN(c2nccc(Cl)n2)CC1` [Example 30, N-methyl-N-[1-(4-chloropyrimidin-2-yl)piperidin-4-yl]-[2-(imidazol-1-yl)]acetamide]: the “effect in preliminary screening of binding to Hsp70, compared with positive compound VER-155008” value on Hsp70 [1] is reported as “equivalent to that of positive compound VER-155008”. At Hsp70 [1], this compound gave a Kd of 225 nM. The Survival rate % in the test with MDA-MB-453 (setting [3]) worked out at 82.8%; in the test on MDA-MB-453 (setting [4]), 36.6%; in the test on BT474 (setting [3]), 93.5%; in the test with BT474 (setting [4]) it was 24.8%; with SK-BR3 (setting [3]), 83.8%; with SK-BR3 (setting [4]), 24.9%. Also, the Survival rate % in the test with MDA-MB-361 (setting [3]) worked out at 104.1%; with MDA-MB-361 (setting [4]) it was 69.1%; in the test on SK/Lap^R1.0 (setting [3]) it was 94.2%; with SK/Lap^R1.0 (setting [4]), 56.9%; in the test on BT/Lap^R1.0 (setting [3]) it was 92.5%; in the test on BT/Lap^R1.0 (setting [4]) it was 50.6%. The “CDI (coefficient of drug interaction)” value in the test on MDA-MB-453 (setting [5]) is recorded as 1.26; in the test with BT474 (setting [5]), 1.05; with SK-BR3 (setting [5]) it was 1.13; in the test with BT/Lap^R1.0 (setting [5]), 1.03.
As for `COc1ccnc(N2CCC(N(C)C(=O)Cn3cncn3)CC2)n1` [Example 42, N-methyl-N-[1-(4-methoxypyrimidin-2-yl)piperidin-4-yl]-2-(1H-1,2,4-triazol-1-yl) acetamide], on Hsp70 [1], the “effect in preliminary screening of binding to Hsp70, compared with positive compound VER-155008” value was “equivalent to that of positive compound VER-155008” and the Kd was found to be 434 nM.
As for `CS(=O)(=O)CCNCc1ccc(-c2ccc3ncnc(Nc4ccc(OCc5cccc(F)c5)c(Cl)c4)c3c2)o1` [Lapatinib, reference compound], the Survival rate % in the test with BT474 (setting [6]) is recorded as 25.1%; in the test on SK-BR3 (setting [6]), 26.3%; with MDA-MB-361 (setting [6]), 70.4%; in the test with SK/Lap^R1.0 (setting [6]), 92.7%; in the test with BT/Lap^R1.0 (setting [6]) it was 53.0%.
Take `N#Cc1ccc(COC[C@H]2O[C@@H](n3c(NCc4ccc(Cl)c(Cl)c4)nc4c(N)ncnc43)[C@H](O)[C@@H]2O)cc1` [VER-155008]: the Kd on Hsp70 [2] is 300 nM.
